According to BigSolDB 2.1:

CCCc1ncc(C[n+]2ccccc2C)c(N)n1.Cl.[Cl-]
solubility (mole fraction)
Details	273.15 K	278.15 K	283.15 K	288.15 K	293.15 K	298.15 K	303.15 K	308.15 K	313.15 K
in 1,4-dioxane	–	–	–	5.76e-05	7.08e-05	8.42e-05	9.99e-05	0.000115	0.000132
in acetone	0.000227	0.000259	0.000291	0.000325	0.000359	0.000401	0.000444	0.000487	0.000533
in acetonitrile	7.2e-06	9.3e-06	1.15e-05	1.42e-05	1.68e-05	1.98e-05	2.35e-05	2.79e-05	3.27e-05
in cyclohexanone	0.000117	0.000146	0.000181	0.000217	0.000252	0.000287	0.000327	–	–
in ethanol	5.33e-05	6.8e-05	9.17e-05	0.000124	0.000159	0.000195	0.000232	0.000273	0.000319
in ethyl acetate	2.48e-05	3.34e-05	4.3e-05	5.26e-05	6.41e-05	7.65e-05	8.91e-05	0.000104	0.00012
in isobutanol	9.3e-06	1.3e-05	1.71e-05	2.18e-05	2.71e-05	3.33e-05	4.11e-05	4.98e-05	5.86e-05
in isopropanol	1.12e-05	1.63e-05	2.25e-05	2.89e-05	3.83e-05	4.87e-05	6.13e-05	7.76e-05	9.49e-05
in methanol	0.000272	0.000376	0.000476	0.00059	0.000722	0.000854	0.001	0.00115	0.0013
in n-butanol	1.79e-05	2.34e-05	3.1e-05	3.89e-05	4.88e-05	6.01e-05	7.53e-05	9.25e-05	0.000109
in n-octanol	2e-06	3.3e-06	4.9e-06	6.7e-06	9.5e-06	1.38e-05	1.86e-05	2.41e-05	3.01e-05
in n-propanol	2.98e-05	4.12e-05	5.26e-05	6.51e-05	7.7e-05	9.09e-05	0.000106	0.000124	0.000142
